Tests used:
[1] = GC-odor threshold values (gas chromatograph with sniff port, panel of trained evaluators); details: for odour threshold value geometric mean: absolute amount delivered at the sniff port, 5 panelists, identical conditions
From the text: As used herein, “odor threshold value” means the lowest concentration of a volatile organic compound in air which can be detected by smell. Generally speaking, it can be said that a compound with a low odor threshold value is more powerful than a compound with a high odor threshold value and thus allows the use of very low concentration in a fragrance composition to achieve an olfactory effect.
According to standard procedures known to the person skilled in the art, threshold values for volatile perfumery compounds are determined on a gas chromatograph equipped with a sniff port by a panel of trained evaluators. The lowest concentration smelled by each panelist is recorded as the individual threshold value expressed in ng (absolute amount of compound delivered at the sniff port).
Under identical conditions the odour threshold value for the individual compounds was measured.

yellow mealworm = details: J. Agr. Food Chem. 20(1), 1972, 65-69; cited from earlier work
[2] = ratio of GC-odour threshold values

Compound | odour threshold value geometric mean [1] | odour threshold value, times lower compared to Citronellyl Acetate [1, 2] | odour threshold value, times lower compared to Ethyl Citronellyl Carbonate [1, 2] | juvenile hormone activity (yellow mealworm)
COC(=O)OCCC(C)CCC=C(C)C (racemic) [Example 1, 3,7-dimethyloct-6-en-1-yl methyl carbonate] | 16 ng | 15 times | 10 times | juvenile hormone activity
CC(C)=CCCC(C)CCOC(=O)Oc1ccccc1 (stereo not drawn) [3,7-Dimethyloct-6-en-1-yl phenyl carbonate] | – | – | – | juvenile hormone activity
CC(C)=CCCC(C)CCO (stereo not drawn) [Citronellol, 3,7-dimethyloct-6-en-1-ol] | 5.2 ng | – | – | –
CC(=O)OCCC(C)CCC=C(C)C (stereo not drawn) [Citronellyl Acetate, 3,7-dimethyloct-6-en-1-yl acetate] | 241 ng | – | – | –
CCOC(=O)OCCC(C)CCC=C(C)C (stereo not drawn) [Ethyl Citronellyl Carbonate, 3,7-dimethyloct-6-en-1-yl ethyl carbonate] | 158 ng | – | – | juvenile hormone activity
